According to patent US6124269A, “2-Halo-6-O-substituted ketolide derivatives” (priority 1998, dated 2000):
Values after ≈ are worked out from the molar mass of the structure shown.

Assays:
Format in all cases: cell-based
[1] = system: Staphylococcus aureus A-5278; assay: In vitro agar dilution MIC, organism code CC; conditions: Table 1B, unit assumed
Outline: (§1)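 Growth on twelve drug-containing BHI agar plates was compared with drug-free controls after incubation at 35-37° C for 20 to 24 hours. Inocula were 1:100 dilutions, or 1:10 for slow-growing strains. The MIC allowed slight haze or sparsely isolated colonies.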

[2] = system: Staphylococcus aureus CMX 642A; assay: In vitro agar dilution MIC, organism code DD; conditions: Table 1B, unit assumed
Outline: as §1

[3] = system: Streptococcus pyogenes PIU 2548; assay: In vitro agar dilution MIC, organism code NN; conditions: unit assumed
Outline: as §1

[4] = system: Micrococcus luteus ATCC 9341; assay: In vitro agar dilution MIC, organism code OO; conditions: Table 1B, unit assumed
Outline: as §1

[5] = system: Escherichia coli JUHL; assay: In vitro agar dilution MIC, organism code QQ; conditions: Table 1B, in µg/mL (unit assumed)
Outline: as §1

[6] = system: Staphylococcus aureus ATCC 6538P; assay: In vitro agar dilution MIC, organism code AA; conditions: Table 1B, unit assumed
Outline: as §1

[7] = system: Staphylococcus aureus 1775; assay: In vitro agar dilution MIC, organism code GG; conditions: Table 1B, unit assumed
Outline: as §1

[8] = system: Streptococcus agalactiae CMX 508; assay: In vitro agar dilution MIC, organism code KK; conditions: Table 1B, unit assumed
Outline: as §1

[9] = system: Escherichia coli SS; assay: In vitro agar dilution MIC, organism code RR; conditions: Table 1B, in µg/mL (unit assumed)
Outline: as §1

[10] = system: Micrococcus luteus ATCC 4698; assay: In vitro agar dilution MIC, organism code PP; conditions: Table 1B, in µg/mL (unit assumed)
Outline: as §1

[11] = system: Streptococcus pyogenes 930; assay: In vitro agar dilution MIC, organism code MM; conditions: unit assumed
Outline: as §1

[12] = system: Streptococcus pneumoniae GYR 1171; assay: In vitro agar dilution MIC, organism code YY; conditions: Table 1B, unit assumed
Outline: as §1

[13] = system: Mycobacterium smegmatis ATCC 114; assay: In vitro agar dilution MIC, organism code UU; conditions: Table 1B, in µg/mL (unit assumed)
Outline: as §1

[14] = system: Candida albicans CCH 442; assay: In vitro agar dilution MIC, organism code TT; conditions: Table 1B, unit assumed
Outline: as §1

[15] = system: Staphylococcus aureus A5177; assay: In vitro agar dilution MIC, organism code BB; conditions: Table 1B, in µg/mL (unit assumed)
Outline: as §1

[16] = system: Staphylococcus epidermidis 3519; assay: In vitro agar dilution MIC, organism code HH; conditions: Table 1B, in µg/mL (unit assumed)
Outline: as §1

[17] = system: Staphylococcus aureus NCTC10649M; assay: In vitro agar dilution MIC, organism code EE; conditions: Table 1B, unit assumed
Outline: as §1

[18] = system: Haemophilis influenzae DILL AMP R; assay: In vitro agar dilution MIC, organism code WW; conditions: unit assumed
Outline: as §1

[19] = system: Streptococcus pneumoniae ATCC 6303; assay: In vitro agar dilution MIC, organism code XX; conditions: unit assumed
Outline: as §1

[20] = system: Escherichia coli DC-2; assay: In vitro agar dilution MIC, organism code SS; conditions: Table 1B, unit assumed
Outline: as §1

[21] = system: Streptococcus pneumoniae 5649; assay: In vitro agar dilution MIC, organism code ZZA; conditions: unit assumed
Outline: as §1

[22] = system: Streptococcus bovis A-5169; assay: In vitro agar dilution MIC, organism code JJ; conditions: Table 1B, unit assumed
Outline: as §1

[23] = system: Streptococcus pyogenes EES61; assay: In vitro agar dilution MIC, organism code LL; conditions: unit assumed
Outline: as §1

[24] = system: Enterococcus faecium ATCC 8043; assay: In vitro agar dilution MIC, organism code II; conditions: Table 1B, unit assumed
Outline: as §1

[25] = system: Nocardia asteroides ATCC 9970; assay: In vitro agar dilution MIC, organism code VV; conditions: Table 1B, in µg/mL (unit assumed)
Outline: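 Agar dilution was run in BHI agar with twelve serial compound dilutions, using a replicator-spotted 1:100 inoculum (1:10 for streptococci). Plates were incubated 20-24 h at 35-37 °C with erythromycin A as class control. MIC was the lowest concentration giving no growth, slight haze or sparse colonies.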

[26] = system: Staphylococcus aureus CMX 553; assay: In vitro agar dilution MIC, organism code FF; conditions: Table 1B, unit assumed
Outline: as §1

[27] = system: Streptococcus pneumoniae 5979; assay: In vitro agar dilution MIC, organism code ZZ; conditions: unit assumed
Outline: as §1

Row | Compound | MIC [1] [µg/mL] | MIC [2] [µg/mL] | MIC ([3]; Table 1B) [µg/mL] | MIC [4] [µg/mL] | MIC [5] | MIC [6] [µg/mL] | MIC [7] [µg/mL] | MIC [8] [µg/mL] | MIC [9] | MIC [10] | MIC ([11]; Table 1B) [µg/mL] | MIC [12] [µg/mL] | MIC [13] | MIC [14] [µg/mL] | MIC [15] | MIC [16] | MIC [17] [µg/mL] | MIC ([18]; Table 1B) [µg/mL] | MIC ([19]; Table 1B) [µg/mL] | MIC [20] [µg/mL] | further results
1 | CC[C@H]1OC(=O)[C@@](C)(F)C(=O)[C@H](C)[C@@H](O[C@@H]2O[C@H](C)C[C@H](N(C)C)[C@H]2O)[C@](C)(OC/C=C/c2cnc3ccccc3c2)C[C@@H](C)C(=O)[C@H](C)[C@H]2NC(=O)O[C@@]21C [Example 5] | > 100 | 0.05 (≈ 0.0638 µM) | 0.05 (≈ 0.0638 µM) | 0.01 (≈ 0.0128 µM) | 25 | 0.05 (≈ 0.0638 µM) | > 100 | 0.01 (≈ 0.0128 µM) | 0.2 | 0.1 | 0.2 (≈ 0.255 µM) | 0.03 (≈ 0.0383 µM) | 0.2 | 12.5 (≈ 15.9 µM) | 0.05 | 0.05 | 0.05 (≈ 0.0638 µM) | 1 (≈ 1.28 µM) | 0.03 (≈ 0.0383 µM) | 25 (≈ 31.9 µM) | MIC ([3]; Table 1D): 0.25 µg/mL (≈ 0.319 µM); MIC ([11]; Table 1D): 0.25 µg/mL (≈ 0.319 µM); MIC ([18]; Table 1D): 1 µg/mL (≈ 1.28 µM); MIC ([19]; Table 1D): 0.03 µg/mL (≈ 0.0383 µM); MIC ([21]; Table 1B): 0.25 µg/mL (≈ 0.319 µM); MIC ([21]; Table 1D): 0.25 µg/mL (≈ 0.319 µM); MIC [22]: 0.005 µg/mL (≈ 0.00638 µM); MIC ([23]; Table 1B): 0.01 µg/mL (≈ 0.0128 µM); MIC ([23]; Table 1D): 0.03 µg/mL (≈ 0.0383 µM); MIC [24]: 0.02 µg/mL (≈ 0.0255 µM); MIC [25]: 0.005; MIC [26]: 0.05 µg/mL (≈ 0.0638 µM); MIC ([27]; Table 1B): 1 µg/mL (≈ 1.28 µM); MIC ([27]; Table 1D): 1 µg/mL (≈ 1.28 µM)
2 | CC[C@H]1OC(=O)C(C)(F)C(=O)[C@H](C)[C@@H](O[C@@H]2O[C@H](C)C[C@H](N(C)C)[C@H]2O)[C@](C)(OCC#CC(=O)c2cccs2)C[C@@H](C)C(=O)[C@H](C)[C@H]2NC(=O)O[C@@]21C (stereo partly shown) [Example 24] | > 100 | 1.56 (≈ 2.04 µM) | 3.1 (≈ 4.05 µM) | 0.2 (≈ 0.261 µM) | 100 | 1.56 (≈ 2.04 µM) | > 100 | 0.39 (≈ 0.51 µM) | 3.1 | 0.78 | 100 (≈ 131 µM) | 0.03 (≈ 0.0392 µM) | 3.1 | > 100 | 1.56 | 1.56 | 1.56 (≈ 2.04 µM) | 16 (≈ 20.9 µM) | 0.06 (≈ 0.0784 µM) | > 100 | MIC ([21]; Table 1B): 1 µg/mL (≈ 1.31 µM); MIC [22]: 0.2 µg/mL (≈ 0.261 µM); MIC ([23]; Table 1B): 0.39 µg/mL (≈ 0.51 µM); MIC [24]: 0.39 µg/mL (≈ 0.51 µM); MIC [25]: 0.78; MIC [26]: 1.56 µg/mL (≈ 2.04 µM); MIC ([27]; Table 1B): > 64 µg/mL
3 | CC[C@H]1OC(=O)C(C)(F)C(=O)[C@H](C)[C@@H](O[C@@H]2O[C@H](C)C[C@H](N(C)C)[C@H]2O)[C@](C)(OCC#CC(=O)c2ccccc2)C[C@@H](C)C(=O)[C@H](C)[C@H]2NC(=O)O[C@@]21C (stereo partly shown) [Example 23] | > 100 | 1.56 (≈ 2.06 µM) | 1.56 (≈ 2.06 µM) | 0.2 (≈ 0.264 µM) | > 100 | 1.56 (≈ 2.06 µM) | > 100 | 0.39 (≈ 0.514 µM) | 3.1 | 1.56 | > 100 | 0.03 (≈ 0.0395 µM) | 3.1 | > 100 | 0.78 | 1.56 | 1.56 (≈ 2.06 µM) | 8 (≈ 10.5 µM) | 0.03 (≈ 0.0395 µM) | > 100 | MIC ([21]; Table 1B): 2 µg/mL (≈ 2.64 µM); MIC [22]: 0.1 µg/mL (≈ 0.132 µM); MIC ([23]; Table 1B): 0.39 µg/mL (≈ 0.514 µM); MIC [24]: 0.78 µg/mL (≈ 1.03 µM); MIC [25]: 0.78; MIC [26]: 0.78 µg/mL (≈ 1.03 µM); MIC ([27]; Table 1B): > 128 µg/mL
